Measured values from PMC9942557, “Bolaamphiphile Analogues of 12-bis-THA Cl2 Are Potent Antimicrobial Therapeutics with Distinct Mechanisms of Action against Bacterial, Mycobacterial, and Fungal Pathogens” (mSphere, 2022).
Where two headings read alike, the source gives them in different places.

How the values were obtained:
[1] = system: Klebsiella pneumoniae NCTC 13368; assay: Broth microdilution MIC; assay type: cell-based
Klebsiella pneumoniae M6 = assay: Broth microdilution MIC; assay type: cell-based
[2] = system: Acinetobacter baumannii AYE; assay: Broth microdilution MIC; assay type: cell-based; conditions: Acinetobacter baumannii AYE
[3] = system: Acinetobacter baumannii ATCC 17978; assay: Broth microdilution MIC; assay type: cell-based
[4] = system: Pseudomonas aeruginosa PAO1; assay: Broth microdilution MIC; assay type: cell-based
[5] = system: Pseudomonas aeruginosa NCTC 13437; assay: Broth microdilution MIC; assay type: cell-based
[6] = system: Escherichia coli NCTC 12923; assay: Broth microdilution MIC; assay type: cell-based
[7] = system: EMR Staphylococcus aureus 15 NCTC 13616; assay: Broth microdilution MIC; assay type: cell-based; conditions: EMR Staphylococcus aureus 15 NCTC 13616
[8] = system: EMR Staphylococcus aureus 16 NCTC 13277; assay: Broth microdilution MIC; assay type: cell-based; conditions: EMR Staphylococcus aureus 16 NCTC 13277
[9] = system: VS Enterococcus faecalis NCTC 775; assay: Broth microdilution MIC; assay type: cell-based
[10] = system: VR Enterococcus faecalis NCTC 12201; assay: Broth microdilution MIC; assay type: cell-based; conditions: VR Enterococcus faecalis NCTC 12201
[11] = system: VR Enterococcus faecium NCTC 12204; assay: Broth microdilution MIC; assay type: cell-based; conditions: VR Enterococcus faecium NCTC 12204
C. albicans 3179 = assay: Broth microdilution MIC; assay type: cell-based, Candida albicans; conditions: C. albicans 3179
C. albicans 3281 = assay: Broth microdilution MIC; assay type: cell-based, Candida albicans; conditions: C. albicans 3281
C. auris temp probe = assay: Broth microdilution MIC; assay type: cell-based, Candida auris; conditions: C. auris temp probe
C. glabrata 8018 = assay: Broth microdilution MIC; assay type: cell-based; conditions: C. glabrata 8018
C. tropicalis 8760 = assay: Broth microdilution MIC; assay type: cell-based; conditions: C. tropicalis 8760
C. krusei 3876 = assay: Broth microdilution MIC; assay type: cell-based
C. parapsilosis 3209 = assay: Broth microdilution MIC; assay type: cell-based
C. parapsilosis = assay: Broth microdilution MIC; assay type: cell-based
M. smegmatis mc^2 155 = assay: Broth microdilution MIC (Middlebrook 7H9); assay type: cell-based, Mycobacterium smegmatis
M. tuberculosis Bleupan [12] = assay: microbe, parasite or virus in culture; assay type: cell-based, Mycobacterium tuberculosis
HEK293 = assay: In vitro toxicity for cell line; assay type: cell-based, human; conditions: HEK293; average ± standard error from 3 independent repeats
Description: (§1) TABLE 2 Toxicity of bolaamphiphiles for two cell lines^a | column: Toxicity (EC50 [μg/ml]) of: / 12-bis-THA Cl2; Toxicity (EC50 [μg/ml]) of: / Dequalinium; Toxicity (EC50 [μg/ml]) of: / Quino-bola; Toxicity (EC50 [μg/ml]) of: / Penta-bola; Toxicity (EC50 [μg/ml]) of: / Hepta-bola; Toxicity (EC50 [μg/ml]) of: / Octa-bola; Toxicity (EC50 [μg/ml]) of: / Octa-C10; Toxicity (EC50 [μg/ml]) of: / Octa-C8; Toxicity (EC50 [μg/ml]) of: / Octa-C6

HeLa = assay: In vitro toxicity for cell line; assay type: cell-based, human; conditions: average ± standard error from 3 independent repeats
Description: as §1

P. aeruginosa RP73 = assay: Checkerboard synergy assay; assay type: cell-based, Pseudomonas aeruginosa
M. tuberculosis Bleupan [13] = assay type: in vivo, Galleria mellonella
Dynamic light scattering = assay type: physicochemical
Experimental: Stock solutions of bolalipids were prepared by dispersing the powder in ultrapure water, then stirring vigorously by vortexing, and sonicating in a 40°C bath sonicator for 20 min. The concentration of each stock solution corresponds to the highest solubility achieved in water for each bolalipid, using the method described above. DLS experiments were performed on a Malvern Zetasizer Nano (Malvern Instruments, Worcestershire, UK) in back-scattering mode at 20°C. There were three independent measurements of each sample and 12 runs for each measurement, with 10 s taken for each run. The attenuator index and measurement position were automatically adjusted. Fifty microliters of each sample was transferred into polystyrene semi-microcuvettes for determination of UV and visible wavelengths (Sarstedt).

K. pneumoniae NCTC 13368 = assay: Fixed-concentration (0.25× MIC bolalipid) synergy broth microdilution; assay type: cell-based, Klebsiella pneumoniae; conditions: Klebsiella pneumoniae, NCTC13368, K. pneumoniae NCTC 13368, read-out: MIC of aminoglycoside
K. pneumoniae M6 = assay: as above; assay type: cell-based; conditions: Klebsiella pneumoniae
A. baumannii AYE = assay: as above; assay type: cell-based; conditions: Acinetobacter baumannii
A. baumannii ATCC 17978 = assay: as above; assay type: cell-based; conditions: Acinetobacter baumannii, ATCC17978, A. baumannii ATCC 17978, read-out: MIC of aminoglycoside
P. aeruginosa PAO1 [14] = assay: as above; assay type: cell-based, Pseudomonas aeruginosa; conditions: Pseudomonas aeruginosa, PAO1, P. aeruginosa PAO1, read-out: MIC of aminoglycoside
P. aeruginosa NCTC 13437 [15] = assay: as above; assay type: cell-based, Pseudomonas aeruginosa; conditions: Pseudomonas aeruginosa, NCTC13437, P. aeruginosa NCTC 13437, read-out: MIC of aminoglycoside
E. coli NCTC 12923 = assay: as above; assay type: cell-based; conditions: Escherichia coli, NCTC12923, E. coli NCTC 12923, read-out: MIC of aminoglycoside
P. aeruginosa PAO1 [16] = assay: Checkerboard synergy assay; assay type: cell-based, Pseudomonas aeruginosa
P. aeruginosa NCTC 13437 [17] = assay: Checkerboard synergy assay; assay type: cell-based, Pseudomonas aeruginosa
[18] = system: Pseudomonas aeruginosa RP73; assay: Intrahemocoelic G. mellonella infection model; assay type: in vivo, Galleria mellonella; conditions: 96 h
[19] = system: Pseudomonas aeruginosa RP73; assay: In vitro pharmacodynamic (PD) assay; conditions: P. aeruginosa RP73; combination 2:1 (wt/wt)
Experimental: In vitro PD assays were performed with Pseudomonas aeruginosa RP73 cultured in Roswell Park Memorial Institute 1640 medium (RPMI) supplemented with 5% Mueller-Hinton broth (MHB) ([35]). Bacteria were cultured overnight in 10 mL of RPMI–5% MHB at 37°C and diluted just prior to plate inoculation to an OD600 of 0.002. Stock solutions of colistin or tobramycin were prepared in sterile MilliQ water at a concentration of 200× MIC. Octa-bola was prepared in methanol at 2,000× MIC and diluted in water to 200× MIC. A dilution series was made in the top row of a polypropylene 96-well plate from 200× MIC to 0.2× MIC in a volume of 100 μL, to which 100 μL of the bacterial suspension was added to have a total of 1 × 10^6 log-phase CFU in 200 μL. The first time zero sample was taken <30 s after addition of bacteria to the plate, with further samples taken at appropriate intervals thereafter. […] Fifteen microliters was removed from each well, diluted 1:1,000 in phosphate-buffered saline, and plated onto RPMI–5% MH agar plates. The plates were incubated at 37°C overnight for CFU counting.
CFU data were log10 transformed, and the bacterial net growth rate was determined from the increase or decrease in CFU during the time of exposure to the antibiotics as the coefficient of a linear regression of log10 CFU as a function of time. The intercept of the regression was fixed by forcing the regression lines through the first CFU measurement (0 min) at a given antimicrobial concentration. The pharmacodynamic function according to Regoes et al. ([36]) describes the relationship between bacterial net growth rate (ψ) and the concentration of an antimicrobial (a): ψmax − ([ψmax − ψmin][a/zMIC])^κ/([a/zMIC]^κ − [ψmin/ψmax]). Fitting this function to the net bacterial growth rates in OriginPro 2020 (OriginLab Corporation, Northampton, MA) generates the parameters ψmin and ψmax (minimum and maximum growth rates, respectively), zMIC (the pharmacodynamic MIC), and κ (a measure of the cooperativity). […]

[20] = in the presence of 0.25× MIC Octa-Bola
[21] = in the presence of 0.25× MIC Octa-C6
[22] = in the presence of 0.25× MIC Octa-C10
[23] = No bola, read-out: MIC of aminoglycoside
[24] = in the presence of 0.25× MIC Octa-Bola, read-out: MIC of aminoglycoside
[25] = in the presence of 0.25× MIC Octa-C6, read-out: MIC of aminoglycoside
[26] = in the presence of 0.25× MIC Octa-C10, read-out: MIC of aminoglycoside

Nc1c2c([n+](CCCCCC[n+]3c4c(c(N)c5ccccc53)CCCCCC4)c3ccccc13)CCCCCC2 [Octa-C6]
MIC [1]: >32 µg/mL
MIC (Klebsiella pneumoniae M6): >32 µg/mL
MIC [2]: >32 µg/mL
MIC [3]: >32 µg/mL
MIC [4]: >32 µg/mL
MIC [5]: >32 µg/mL
MIC [6]: >32 µg/mL
MIC [7]: 16 µg/mL
MIC [8]: 16 µg/mL
MIC [9]: 32 µg/mL
MIC [10]: 16 µg/mL
MIC [11]: 16 µg/mL
MIC (C. albicans 3179): 8 µg/mL
MIC (C. albicans 3281): 8 µg/mL
MIC (C. auris temp probe): >8 µg/mL
MIC (C. glabrata 8018): >8 µg/mL
MIC (C. tropicalis 8760): 8 µg/mL
MIC (C. krusei 3876): >8 µg/mL
MIC (C. parapsilosis 3209): >8 µg/mL
MIC (C. parapsilosis): >8 µg/mL
MIC (M. smegmatis mc^2 155): 1.66 µg/mL
MIC (M. tuberculosis Bleupan [12]): 0.46 µg/mL
Toxicity (EC50) (HEK293): 40.0 ± 15.6 µg/mL
Toxicity (EC50) (HeLa): 64.3 ± 3.6 µg/mL
MIC alone Bolalipid (P. aeruginosa RP73): 64 µg/mL
protection (M. tuberculosis Bleupan [13]; all doses tested): did not provide protection
survival (M. tuberculosis Bleupan [13]; three lower doses (0.01, 0.1, and 1 mg/kg)): survival was significantly worse
nanoparticle formation (DLS) (Dynamic light scattering; any conditions): Under no conditions did Octa-C6 give evidence of nanoparticle formation
derived count rate (Dynamic light scattering; concentrations up to 1.65 mM): ≤ 26.3 kcps

NC[C@H]1O[C@H](O[C@H]2[C@H](O)[C@@H](O[C@H]3O[C@H](CO)[C@@H](O)[C@H](N)[C@H]3O)[C@H](N)C[C@@H]2N)[C@H](N)C[C@@H]1O [Tobramycin]
MIC (K. pneumoniae NCTC 13368; No bola): 8 µg/mL
MIC (K. pneumoniae NCTC 13368; [20]): 4 µg/mL
MIC (K. pneumoniae NCTC 13368; [21]): 16 µg/mL
MIC (K. pneumoniae NCTC 13368; [22]): 8 µg/mL
MIC (K. pneumoniae M6; [23]): 1 µg/mL
MIC (K. pneumoniae M6; [24]): 0.5 µg/mL
MIC (K. pneumoniae M6; [25]): 1 µg/mL
MIC (K. pneumoniae M6; [26]): 0.25 µg/mL
MIC (A. baumannii AYE; [23]): 64 µg/mL
MIC (A. baumannii AYE; [24]): 8 µg/mL
MIC (A. baumannii AYE; [25]): 16 µg/mL
MIC (A. baumannii AYE; [26]): 4 µg/mL
MIC (A. baumannii ATCC 17978; No bola): 2 µg/mL
MIC (A. baumannii ATCC 17978; [20]): 0.125 µg/mL
MIC (A. baumannii ATCC 17978; [21]): 0.5 µg/mL
MIC (A. baumannii ATCC 17978; [22]): 0.5 µg/mL
MIC (P. aeruginosa PAO1 [14]; No bola): 1 µg/mL
MIC (P. aeruginosa PAO1 [14]; [20]): 0.5 µg/mL
MIC (P. aeruginosa PAO1 [14]; [21]): 0.5 µg/mL
MIC (P. aeruginosa PAO1 [14]; [22]): 0.25 µg/mL
MIC (P. aeruginosa NCTC 13437 [15]; No bola): 64 µg/mL
MIC (P. aeruginosa NCTC 13437 [15]; [20]): 8 µg/mL
MIC (P. aeruginosa NCTC 13437 [15]; [21]): 8 µg/mL
MIC (P. aeruginosa NCTC 13437 [15]; [22]): 4 µg/mL
MIC (E. coli NCTC 12923; No bola): 2 µg/mL
MIC (E. coli NCTC 12923; [20]): 1 µg/mL
MIC (E. coli NCTC 12923; [21]): 2 µg/mL
MIC (E. coli NCTC 12923; [22]): 1 µg/mL
MIC alone Antibiotic (P. aeruginosa PAO1 [16]): 0.5 µg/mL
MIC alone Antibiotic (P. aeruginosa RP73): 2 µg/mL
MIC alone Antibiotic (P. aeruginosa NCTC 13437 [17]): 64 µg/mL
larvae rescued ([18]; 5 mg/kg): 37.5%
larvae rescued ([18]; 50 mg/kg, 1 × 10^2 CFU per larva): 97.5%
bactericidal activity (minimum growth rate, ψmin) [19]: weakly bactericidal
